# Measured values taken from article PMC9898036, “VIP152 is a selective CDK9 inhibitor with pre-clinical in vitro and in vivo efficacy in chronic lymphocytic leukemia” (Leukemia, 2022).
# Legend:
# [1] = target: hERG potassium channel (Homo sapiens, UniProt Q12809); experiment: Eurofins Diversity Panel; assay type: binding; conditions: hum, Conc. 10 μM
# [2] = target: Cannabinoid CB1 (Homo sapiens, UniProt P21554); experiment: Eurofins Diversity Panel; assay type: binding; conditions: hum, Conc. 10 μM
# [3] = target: JNK2 (Homo sapiens, UniProt P45984); experiment: KINOMEscan: JNK2; assay type: binding; conditions: 1000 nM, read-out: Percent Control
# [4] = target: ALK(L1196M) (Homo sapiens, UniProt Q9UM73, L1196M); experiment: KINOMEscan: ALK(L1196M); assay type: binding; conditions: 1000 nM, read-out: Percent Control
# [5] = target: TRPM6 (Homo sapiens, UniProt Q9BX84); experiment: KINOMEscan: TRPM6; assay type: binding; conditions: 100 nM, read-out: Percent Control
# [6] = target: MAP3K3 (Homo sapiens, UniProt Q99759); experiment: KINOMEscan: MAP3K3; assay type: binding; conditions: 1000 nM, read-out: Percent Control
# [7] = target: FAK (Homo sapiens, UniProt Q05397); experiment: KINOMEscan: FAK; assay type: binding; conditions: 1000 nM, read-out: Percent Control
# [8] = target: LKB1 (Homo sapiens, UniProt Q15831); experiment: KINOMEscan: LKB1; assay type: binding; conditions: 1000 nM, read-out: Percent Control
# [9] = target: CSF1R (Homo sapiens, UniProt P07333); experiment: KINOMEscan: CSF1R; assay type: binding; conditions: 1000 nM, read-out: Percent Control
# [10] = target: EPHB2 (Homo sapiens, UniProt P29323); experiment: KINOMEscan: EPHB2; assay type: binding; conditions: 1000 nM, read-out: Percent Control
# [11] = target: BRSK1 (Homo sapiens, UniProt Q8TDC3); experiment: KINOMEscan: BRSK1; assay type: binding; conditions: 1000 nM, read-out: Percent Control
# [12] = target: TNK2 (Homo sapiens, UniProt Q07912); experiment: KINOMEscan: TNK2; assay type: binding; conditions: 100 nM, read-out: Percent Control
# [13] = target: ERK3 (Homo sapiens, UniProt Q16659); experiment: KINOMEscan: ERK3; assay type: binding; conditions: 1000 nM, read-out: Percent Control
# [14] = target: LRRK2 (Homo sapiens, UniProt Q5S007); experiment: KINOMEscan: LRRK2; assay type: binding; conditions: 1000 nM, read-out: Percent Control
# [15] = target: MARK2 (Homo sapiens, UniProt Q7KZI7); experiment: KINOMEscan: MARK2; assay type: binding; conditions: 1000 nM, read-out: Percent Control
# Sequence of MARK2 (Q7KZI7 whole entry): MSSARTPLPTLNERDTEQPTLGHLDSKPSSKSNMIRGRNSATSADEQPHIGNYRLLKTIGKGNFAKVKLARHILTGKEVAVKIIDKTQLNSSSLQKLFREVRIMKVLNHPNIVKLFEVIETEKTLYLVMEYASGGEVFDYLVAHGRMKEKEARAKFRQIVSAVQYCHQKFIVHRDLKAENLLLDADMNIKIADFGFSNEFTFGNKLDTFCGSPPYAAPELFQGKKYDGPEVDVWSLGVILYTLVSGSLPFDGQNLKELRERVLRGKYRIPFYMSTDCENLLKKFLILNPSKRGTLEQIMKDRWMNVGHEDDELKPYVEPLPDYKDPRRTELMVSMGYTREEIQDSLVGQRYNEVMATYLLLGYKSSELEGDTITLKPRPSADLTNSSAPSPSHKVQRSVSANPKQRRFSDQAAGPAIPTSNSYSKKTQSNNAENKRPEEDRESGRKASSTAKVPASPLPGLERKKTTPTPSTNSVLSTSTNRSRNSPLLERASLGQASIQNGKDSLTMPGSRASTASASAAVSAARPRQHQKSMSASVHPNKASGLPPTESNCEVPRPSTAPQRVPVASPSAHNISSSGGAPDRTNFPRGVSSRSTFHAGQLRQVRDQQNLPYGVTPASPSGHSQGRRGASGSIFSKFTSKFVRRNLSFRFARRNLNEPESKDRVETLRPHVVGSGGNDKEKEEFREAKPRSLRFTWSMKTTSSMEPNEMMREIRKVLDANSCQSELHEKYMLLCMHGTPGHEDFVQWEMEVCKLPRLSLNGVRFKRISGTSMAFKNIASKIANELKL
# [16] = target: Muscarinic M1 (Homo sapiens, UniProt P11229); experiment: Eurofins Diversity Panel; assay type: binding; conditions: hum, Conc. 10 μM
# [17] = target: IRAK4 (Homo sapiens, UniProt Q9NWZ3); experiment: KINOMEscan: IRAK4; assay type: binding; conditions: 1000 nM, read-out: Percent Control
# [18] = target: AURKC (Homo sapiens, UniProt Q9UQB9); experiment: KINOMEscan: AURKC; assay type: binding; conditions: 1000 nM, read-out: Percent Control
# [19] = target: CDKL2 (Homo sapiens, UniProt Q92772); experiment: KINOMEscan: CDKL2; assay type: binding; conditions: 1000 nM, read-out: Percent Control
# [20] = target: MRCKB (Homo sapiens, UniProt Q9Y5S2); experiment: KINOMEscan: MRCKB; assay type: binding; conditions: 1000 nM, read-out: Percent Control
# [21] = test system: FLT3(ITD,F691L); experiment: KINOMEscan: FLT3(ITD,F691L); assay type: binding, human; conditions: 1000 nM
# [22] = target: DYRK2 (Homo sapiens, UniProt Q92630); experiment: KINOMEscan: DYRK2; assay type: binding; conditions: 1000 nM, read-out: Percent Control
# Sequence of DYRK2 (Q92630 whole entry): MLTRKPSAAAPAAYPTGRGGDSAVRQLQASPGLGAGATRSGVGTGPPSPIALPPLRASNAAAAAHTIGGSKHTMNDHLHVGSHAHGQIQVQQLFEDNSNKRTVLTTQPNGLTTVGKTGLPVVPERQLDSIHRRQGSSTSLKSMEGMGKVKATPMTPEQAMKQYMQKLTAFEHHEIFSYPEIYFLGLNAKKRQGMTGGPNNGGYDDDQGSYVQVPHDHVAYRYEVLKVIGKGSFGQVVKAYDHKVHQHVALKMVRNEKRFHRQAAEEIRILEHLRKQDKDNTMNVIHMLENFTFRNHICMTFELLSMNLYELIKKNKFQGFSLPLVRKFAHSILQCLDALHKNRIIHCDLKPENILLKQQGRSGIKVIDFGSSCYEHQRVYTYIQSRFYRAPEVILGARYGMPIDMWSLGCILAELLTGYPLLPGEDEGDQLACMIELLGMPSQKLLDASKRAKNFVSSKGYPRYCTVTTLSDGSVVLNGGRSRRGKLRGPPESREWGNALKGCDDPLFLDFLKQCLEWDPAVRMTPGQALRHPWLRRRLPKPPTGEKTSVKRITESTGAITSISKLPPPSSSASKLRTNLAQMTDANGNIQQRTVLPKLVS
# [23] = target: T1, CDK9 in complex with Cyclin K (Homo sapiens, UniProt P50750); experiment: NanoBRET target engagement assay (HEK293); assay type: cell-based
# T1 construct: host or cells: HEK293
# T1 sequence (P50750 whole entry): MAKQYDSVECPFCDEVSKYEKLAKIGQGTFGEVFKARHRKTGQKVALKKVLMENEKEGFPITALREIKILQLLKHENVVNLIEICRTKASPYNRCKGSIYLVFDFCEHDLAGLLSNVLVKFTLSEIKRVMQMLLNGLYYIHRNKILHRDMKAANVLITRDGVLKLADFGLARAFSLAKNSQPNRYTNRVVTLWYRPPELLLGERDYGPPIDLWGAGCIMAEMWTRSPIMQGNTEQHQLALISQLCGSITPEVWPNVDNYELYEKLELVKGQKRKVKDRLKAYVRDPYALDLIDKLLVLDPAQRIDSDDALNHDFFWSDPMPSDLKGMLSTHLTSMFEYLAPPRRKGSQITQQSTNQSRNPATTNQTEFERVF
# T1 sequence (O75909 whole entry partner): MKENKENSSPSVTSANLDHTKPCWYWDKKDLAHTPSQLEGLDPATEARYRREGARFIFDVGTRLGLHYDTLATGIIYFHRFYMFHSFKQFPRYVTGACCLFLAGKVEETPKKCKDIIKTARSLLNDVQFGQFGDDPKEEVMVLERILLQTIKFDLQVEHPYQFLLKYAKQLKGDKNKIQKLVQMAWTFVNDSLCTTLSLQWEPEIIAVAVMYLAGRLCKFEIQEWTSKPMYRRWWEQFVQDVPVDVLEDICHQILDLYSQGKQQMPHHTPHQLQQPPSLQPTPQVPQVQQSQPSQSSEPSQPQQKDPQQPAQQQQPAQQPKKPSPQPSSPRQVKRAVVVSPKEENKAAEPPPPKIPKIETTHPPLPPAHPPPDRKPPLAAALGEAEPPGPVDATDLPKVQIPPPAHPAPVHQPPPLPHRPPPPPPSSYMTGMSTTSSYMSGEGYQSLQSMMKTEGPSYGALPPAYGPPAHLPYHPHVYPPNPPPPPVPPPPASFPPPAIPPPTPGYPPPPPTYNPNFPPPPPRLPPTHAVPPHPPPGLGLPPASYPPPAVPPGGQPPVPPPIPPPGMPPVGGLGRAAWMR
# [24] = target: TGFBR1 (Homo sapiens, UniProt P36897); experiment: KINOMEscan: TGFBR1; assay type: binding; conditions: 100 nM, read-out: Percent Control
# Sequence of TGFBR1 (P36897 34-503): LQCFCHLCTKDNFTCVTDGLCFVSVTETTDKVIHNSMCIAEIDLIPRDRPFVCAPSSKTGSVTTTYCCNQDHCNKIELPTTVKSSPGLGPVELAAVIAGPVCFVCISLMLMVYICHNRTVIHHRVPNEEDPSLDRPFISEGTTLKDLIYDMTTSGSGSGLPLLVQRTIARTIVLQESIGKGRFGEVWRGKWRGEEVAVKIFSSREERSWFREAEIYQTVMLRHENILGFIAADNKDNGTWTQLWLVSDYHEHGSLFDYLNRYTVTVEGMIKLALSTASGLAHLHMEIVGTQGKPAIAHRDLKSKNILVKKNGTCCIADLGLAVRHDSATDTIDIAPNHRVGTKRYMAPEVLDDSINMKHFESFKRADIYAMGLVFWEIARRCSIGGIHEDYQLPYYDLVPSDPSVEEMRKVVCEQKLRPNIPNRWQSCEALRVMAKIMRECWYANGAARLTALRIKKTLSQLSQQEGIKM
# [25] = target: MARK1 (Homo sapiens, UniProt Q9P0L2); experiment: KINOMEscan: MARK1; assay type: binding; conditions: 1000 nM, read-out: Percent Control
# Sequence of MARK1 (Q9P0L2 whole entry): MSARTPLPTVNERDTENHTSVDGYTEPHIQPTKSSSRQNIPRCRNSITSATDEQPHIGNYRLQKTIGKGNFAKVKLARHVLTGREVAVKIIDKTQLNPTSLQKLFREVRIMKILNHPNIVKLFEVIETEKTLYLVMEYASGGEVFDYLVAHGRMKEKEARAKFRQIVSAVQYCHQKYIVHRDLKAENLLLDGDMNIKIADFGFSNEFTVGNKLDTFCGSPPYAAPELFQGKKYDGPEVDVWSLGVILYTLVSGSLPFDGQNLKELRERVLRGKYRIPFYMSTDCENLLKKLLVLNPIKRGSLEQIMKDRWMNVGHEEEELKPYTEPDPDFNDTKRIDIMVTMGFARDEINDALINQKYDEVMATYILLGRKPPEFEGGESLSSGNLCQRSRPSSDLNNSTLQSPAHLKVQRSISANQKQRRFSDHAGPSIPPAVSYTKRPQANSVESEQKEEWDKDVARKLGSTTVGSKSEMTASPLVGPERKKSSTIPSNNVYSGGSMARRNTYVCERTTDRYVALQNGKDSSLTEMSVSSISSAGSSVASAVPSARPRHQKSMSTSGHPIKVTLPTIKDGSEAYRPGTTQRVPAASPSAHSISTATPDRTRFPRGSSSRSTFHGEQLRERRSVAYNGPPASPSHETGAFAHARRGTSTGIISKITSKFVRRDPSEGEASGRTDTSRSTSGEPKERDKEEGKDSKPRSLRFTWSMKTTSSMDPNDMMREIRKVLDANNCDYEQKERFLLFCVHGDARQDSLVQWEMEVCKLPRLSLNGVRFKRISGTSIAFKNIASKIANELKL
# [26] = target: DLK (Homo sapiens, UniProt Q12852); experiment: KINOMEscan: DLK; assay type: binding; conditions: 1000 nM, read-out: Percent Control
# Sequence of DLK (Q12852 whole entry): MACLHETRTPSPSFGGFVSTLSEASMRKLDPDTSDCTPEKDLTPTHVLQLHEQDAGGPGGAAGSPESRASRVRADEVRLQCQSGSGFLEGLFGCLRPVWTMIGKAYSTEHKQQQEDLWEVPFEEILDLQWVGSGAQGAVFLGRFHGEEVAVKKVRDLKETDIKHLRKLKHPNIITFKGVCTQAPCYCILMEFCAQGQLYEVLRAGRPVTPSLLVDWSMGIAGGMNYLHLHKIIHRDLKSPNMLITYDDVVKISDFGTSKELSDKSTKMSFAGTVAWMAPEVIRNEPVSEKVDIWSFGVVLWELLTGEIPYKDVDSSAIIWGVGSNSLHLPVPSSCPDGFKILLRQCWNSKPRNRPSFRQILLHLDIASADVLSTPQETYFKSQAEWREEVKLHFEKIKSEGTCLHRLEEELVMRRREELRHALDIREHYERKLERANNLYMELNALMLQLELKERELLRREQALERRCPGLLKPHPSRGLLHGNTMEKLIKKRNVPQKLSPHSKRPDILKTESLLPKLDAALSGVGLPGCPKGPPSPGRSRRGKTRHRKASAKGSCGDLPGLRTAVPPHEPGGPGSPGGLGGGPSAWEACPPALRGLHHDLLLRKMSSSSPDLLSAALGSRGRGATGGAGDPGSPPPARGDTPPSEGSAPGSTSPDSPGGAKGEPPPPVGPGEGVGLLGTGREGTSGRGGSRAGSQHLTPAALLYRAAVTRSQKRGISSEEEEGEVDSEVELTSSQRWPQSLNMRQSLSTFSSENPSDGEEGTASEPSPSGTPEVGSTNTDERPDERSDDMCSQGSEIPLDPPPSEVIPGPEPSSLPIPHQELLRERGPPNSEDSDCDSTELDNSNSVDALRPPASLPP
# [27] = target: Endothelin ETA (Homo sapiens, UniProt P25101); experiment: Eurofins Diversity Panel; assay type: binding; conditions: hum, Conc. 10 μM
# [28] = target: EPHA7 (Homo sapiens, UniProt Q15375); experiment: KINOMEscan: EPHA7; assay type: binding; conditions: 1000 nM, read-out: Percent Control
# [29] = target: EGFR(L747-E749del, A750P) (Homo sapiens, UniProt P00533, A750P/DEL747-749); experiment: KINOMEscan: EGFR(L747-E749del, A750P); assay type: binding; conditions: 1000 nM, read-out: Percent Control
# Sequence of EGFR(L747-E749del, A750P) (P00533 with tags, fused parts or gaps DEL747-749/A750P limits assumed): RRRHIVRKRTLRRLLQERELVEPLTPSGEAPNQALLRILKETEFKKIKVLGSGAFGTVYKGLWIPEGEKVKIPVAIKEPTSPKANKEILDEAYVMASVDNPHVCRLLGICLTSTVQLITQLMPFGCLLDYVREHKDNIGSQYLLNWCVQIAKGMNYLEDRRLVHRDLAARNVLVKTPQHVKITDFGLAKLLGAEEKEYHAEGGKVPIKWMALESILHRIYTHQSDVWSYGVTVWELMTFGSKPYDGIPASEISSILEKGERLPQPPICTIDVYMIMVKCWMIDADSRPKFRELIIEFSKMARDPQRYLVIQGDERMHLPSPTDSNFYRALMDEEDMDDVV
# [30] = target: LZK (Homo sapiens, UniProt O43283); experiment: KINOMEscan: LZK; assay type: binding; conditions: 1000 nM, read-out: Percent Control
# [31] = target: PFCDPK1(P.falciparum) (Plasmodium falciparum, UniProt P62344); experiment: DiscoverX KINOMEscan kinase profiling; assay type: binding; conditions: kinase PFCDPK1(P.falciparum) (Entrez CDPK1); compound concentration 1000 nM; read-out: Percent Control
smiles,measurement,setting,value
COc1cc(F)ccc1-c1cc(Nc2cc(CS(C)(=N)=O)ccn2)ncc1F (stereo not shown) [VIP152],inhibition at 10 µM,[1],26%
same,inhibition at 10 µM,[2],16%
same,remaining binding at 1 µM,[3],83%
same,remaining binding at 1 µM,[4],91%
same,remaining binding at 0.1 µM,[5],100%
same,remaining binding at 1 µM,[6],86%
same,remaining binding at 1 µM,[7],83%
same,remaining binding at 1 µM,[8],77%
same,remaining binding at 1 µM,[9],70%
same,remaining binding at 1 µM,[10],92%
same,remaining binding at 1 µM,[11],83%
same,remaining binding at 0.1 µM,[12],100%
same,remaining binding at 1 µM,[13],84%
same,remaining binding at 1 µM,[14],50%
same,remaining binding at 1 µM,[15],81%
same,inhibition at 10 µM,[16],-10%
same,remaining binding at 1 µM,[17],78%
same,remaining binding at 1 µM,[18],38%
same,remaining binding at 1 µM,[19],18%
same,remaining binding at 1 µM,[20],59%
same,Percent Control,[21],78%
same,remaining binding at 1 µM,[22],62%
same,potency versus the other inhibitors,[23],higher potency
same,remaining binding at 0.1 µM,[24],100%
same,remaining binding at 1 µM,[25],89%
same,remaining binding at 1 µM,[26],90%
same,inhibition at 10 µM,[27],13%
same,remaining binding at 1 µM,[28],100%
same,remaining binding at 1 µM,[29],80%
same,remaining binding at 1 µM,[30],100%
same,remaining binding at 1 µM,[31],86%
